Series [1] in a line: Solubility assessment (UHPLC-UV of supernatant, target 10 mg/ml). Format: physicochemical. Conditions: pH 7.4, Soluble amount. As to the method: Prior to the solubility measurement of a peptide batch, its purity was determined through UHPLC/MS.
Therefore, solutions from solid samples were prepared in a buffer system with a concentration of 10 mg/ml compound based on the previously determined % purity: • Solubility buffer system A) 100 mM phosphate buffer pH 7.4 • Solubility buffer system B) 8 mM phosphate buffer pH 7.4, 14 mg/ml propylene glycol, 5.5 mg/ml phenol • Solubility buffer system C) 100 mM phosphate buffer pH 7.4, 2.7 mg/ml m-cresol
UHPLC-UV was performed after 1 h of gentle agitation and storage at 5° C. overnight (24 h) from the supernatant, which was obtained after 15 min of centrifugation at 2500 RCF (relative centrifugal acceleration).
The different UV extinction coefficients of sample and reference peptide were calculated based on the different amino acid sequences and considered in the concentration calculation.
The analytical method used was Analytical UHPLC Method A.
Peptide samples were prepared in solubility buffer system A or C and solubility was assessed as described in Methods.

For series [2], the target named is T1, human GIP receptor (Homo sapiens, UniProt P48546).
T1 construct: human adipocytes endogenously expressing the human GIP receptor; host or cells: human preadipocytes (Lonza) differentiated to adipocytes
T1 sequence (P48546 22-466): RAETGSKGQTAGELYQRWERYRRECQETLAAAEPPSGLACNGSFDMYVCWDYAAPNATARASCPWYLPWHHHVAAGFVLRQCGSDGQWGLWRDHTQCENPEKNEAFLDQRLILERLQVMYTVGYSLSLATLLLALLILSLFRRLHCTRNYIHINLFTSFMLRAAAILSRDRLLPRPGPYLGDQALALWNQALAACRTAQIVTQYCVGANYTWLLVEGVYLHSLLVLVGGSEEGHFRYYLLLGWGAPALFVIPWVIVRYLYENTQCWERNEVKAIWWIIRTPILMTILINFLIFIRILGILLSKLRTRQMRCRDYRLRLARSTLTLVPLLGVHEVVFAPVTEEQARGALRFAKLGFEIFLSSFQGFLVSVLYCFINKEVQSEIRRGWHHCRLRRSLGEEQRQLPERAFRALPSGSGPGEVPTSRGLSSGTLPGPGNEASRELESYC
Nature of the series: In vitro cellular cAMP assay for GIP receptor efficacy (human adipocytes). The class given is cell-based. Conditions: read-out: hGIPR Emax. Here is the method: For this, one vial of human preadipocytes (˜10^6 cells; Lonza) was thawed in a T-75 cell culture dish. The cells were cultivated at 37° C., 5% CO2, 95% humidity in Preadipocyte Growth Medium with Supplement Mix from Promo Cell.
After 3 days, the cells were washed with PBS and 1.5 ml Trypsin, incubated for 4 min, then resuspended in medium, centrifugated for 10 min @ 300 rcf RT, resuspended again and distributed to four T-75 cell culture dishes. Again, the cells were cultivated at 37° C., 5% CO2, 95% humidity.
After 5 days, the cells were washed with PBS and 1.5 ml Trypsin, incubated for 4 min, then resuspended in medium, centrifugated for 10 min @ 300 rcf RT, resuspended again and sawn in T-75 dishes (2.5×10^6 cells per dish) in 15 ml Differentiation medium each.
The differentiation medium had the following composition: DMEM (Gibco), Ham's F10 (Gibco), 15 mM HEPES (Gibco), 3% FCS (PAA), 33 μM biotin (Sigma-Aldrich), 17 μM Pantothenate (Sigma-Aldrich), 0.1 μM human insulin (Sigma-Aldrich), 1 μM dexamethason (Sigma-Aldrich), 0.1 μM PPARgamma agonist (#R2408, Sigma-Aldrich), 0.6×Anti-Anti (#15240, ThermoFisher), 200 μM IBMX (AppliChem), and 0.01 μM L-thyroxine (Sigma-Aldrich).
After 6 days of differentiation, 5000 cells per well were dispensed on a 96-well plate (#CLS3694 from Corning®, Sigma-Aldrich). For measurement of cAMP generation, 25 μL of test compound was added to each well of the 96-well plate, followed by incubation for 30 min at room temperature.
The cAMP generated following test compound stimulation was determined using a kit from Cisbio Corp. based on HTRF (Homogenous Time Resolved Fluorescence). The cAMP assay was performed according to manufacturer's instructions (Cisbio).
The cAMP content of cells was determined using a kit from Cisbio Corp. based on HTRF (Homogenous Time Resolved Fluorescence).
After addition of HTRF reagents diluted in lysis buffer (kit components), the plates were incubated for 1 h, followed by measurement of the fluorescence ratio at 665/620 nm.

Series [3] deals with T2, human GIP receptor (human, UniProt P48546 22-466).
T2 sequence (looked up): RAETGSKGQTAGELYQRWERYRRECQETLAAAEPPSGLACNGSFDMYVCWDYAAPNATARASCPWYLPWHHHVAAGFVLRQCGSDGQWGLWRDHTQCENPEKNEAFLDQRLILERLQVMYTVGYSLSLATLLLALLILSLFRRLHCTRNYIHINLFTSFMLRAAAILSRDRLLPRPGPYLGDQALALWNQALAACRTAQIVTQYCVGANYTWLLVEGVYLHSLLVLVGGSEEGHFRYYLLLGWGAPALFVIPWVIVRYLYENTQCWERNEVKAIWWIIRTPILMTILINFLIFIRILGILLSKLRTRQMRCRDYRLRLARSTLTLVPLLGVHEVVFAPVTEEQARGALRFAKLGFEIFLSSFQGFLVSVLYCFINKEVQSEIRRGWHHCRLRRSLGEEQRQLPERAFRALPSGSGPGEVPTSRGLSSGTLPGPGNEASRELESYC
Nature of the series: cell-based or functional assay.

Converted amounts (≈) assume the structure as drawn. Numbered stars: 1 amine (or outer) side, 2 acyl side, 3 side chain; on linkers, the order of the positions; unused ones are H or OH. Square brackets hold non-standard residues; d marks the D form. Side chains are listed from the residue outwards. Ends that are not written are not given here. Peptide text beside a SMILES is read from it. * marks the point of attachment. ξ: configuration not given here. C18 diacid = O=C(O)CCCCCCCCCCCCCCCCC(=O)*; γGlu = O=C(O)[C@H](CCC(=O)[*:2])N[*:1]; tBuAla = CC(C)(C)C[C@H](N)C(=O)O; ξIva = CCC(C)(N)C(=O)O; AEEA = NCCOCCOCC(=O)O; Aib = CC(C)(N)C(=O)O

Broadly, the solubility is how much of the substance goes into solution per volume. The term Emax denotes the greatest response seen or fitted, relative to the assay's reference.

Consider `CC[C@H](C)[C@H](NC(=O)[C@H](Cc1ccccc1)NC(=O)[C@H](CCC(=O)O)NC(=O)[C@H](CCC(=O)O)NC(=O)[C@H](CCC(N)=O)NC(=O)[C@H](Cc1c[nH]cn1)NC(=O)[C@@H](NC(=O)[C@H](CCCNC(=N)N)NC(=O)[C@H](CC(=O)O)NC(=O)[C@H](CCCCNC(=O)COCCOCCNC(=O)COCCOCCNC(=O)CC[C@H](NC(=O)CCCCCCCCCCCCCCCCC(=O)O)C(=O)O)NC(=O)C(C)(C)NC(=O)[C@@H](NC(=O)[C@H](CO)NC(=O)[C@H](CC(C)C)NC(=O)[C@H](CC(=O)O)NC(=O)[C@H](CO)NC(=O)[C@@H](NC(=O)C(C)(CC)NC(=O)[C@@H](NC(=O)CNC(=O)[C@H](CCC(=O)O)NC(=O)C(C)(C)NC(=O)[C@@H](N)Cc1ccc(O)cc1)[C@@H](C)O)[C@@H](C)CC)[C@@H](C)CC)[C@@H](C)CC)C(=O)N[C@@H](CCC(=O)O)C(=O)N[C@@H](Cc1c[nH]c2ccccc12)C(=O)N[C@@H](CC(C)C)C(=O)N[C@@H](CC(C)C)C(=O)N[C@@H](C)C(=O)N[C@@H](CCC(N)=O)C(=O)NCC(=O)N1CCC[C@H]1C(=O)N[C@@H](CO)C(=O)N[C@@H](CO)C(=O)NCC(=O)N[C@@H](C)C(=O)N1CCC[C@H]1C(=O)N1CCC[C@H]1C(=O)N1CCC[C@H]1C(=O)N[C@@H](CO)C(N)=O` (stereo partly drawn) [SEQ ID NO: 24, H2N-Y-Aib-E-G-T-Iva-I-S-D-L-S-I-Aib-K[{AEEA}2-gGlu-C18OH]-DRIHQEEFIEWLLAQGPSSGAPPPS-NH2] (H-Y[Aib]EGT[ξIva]ISDLSI[Aib]K([AEEA-AEEA-γGlu-C18 diacid])DRIHQEEFIEWLLAQGPSSGAPPPS-NH2), for which the concentration in solution in series [1] (solubility) was 7800 µg/mL (≈ 1570 µM). For the same molecule, the Emax on human GIP receptor [2] is 100%.

B1: SEQ ID NO: 33 (peptide)
peptide: Y[Aib]EGTFISDLSI[Aib]K([AEEA-AEEA-γGlu-C18 diacid])DRIHQEEFIEWL[tBuAla]AQGPSSGAPPPS-NH2
modifications: N-terminus assumed
SMILES: CC[C@H](C)[C@H](NC(=O)[C@H](Cc1ccccc1)NC(=O)[C@H](CCC(=O)O)NC(=O)[C@H](CCC(=O)O)NC(=O)[C@H](CCC(N)=O)NC(=O)[C@H](Cc1c[nH]cn1)NC(=O)[C@@H](NC(=O)[C@H](CCCNC(=N)N)NC(=O)[C@H](CC(=O)O)NC(=O)[C@H](CCCCNC(=O)COCCOCCNC(=O)COCCOCCNC(=O)CC[C@H](NC(=O)CCCCCCCCCCCCCCCCC(=O)O)C(=O)O)NC(=O)C(C)(C)NC(=O)[C@@H](NC(=O)[C@H](CO)NC(=O)[C@H](CC(C)C)NC(=O)[C@H](CC(=O)O)NC(=O)[C@H](CO)NC(=O)[C@@H](NC(=O)[C@H](Cc1ccccc1)NC(=O)[C@@H](NC(=O)CNC(=O)[C@H](CCC(=O)O)NC(=O)C(C)(C)NC(=O)[C@@H](N)Cc1ccc(O)cc1)[C@@H](C)O)[C@@H](C)CC)[C@@H](C)CC)[C@@H](C)CC)C(=O)N[C@@H](CCC(=O)O)C(=O)N[C@@H](Cc1c[nH]c2ccccc12)C(=O)N[C@@H](CC(C)C)C(=O)N[C@@H](CC(C)(C)C)C(=O)N[C@@H](C)C(=O)N[C@@H](CCC(N)=O)C(=O)NCC(=O)N1CCC[C@H]1C(=O)N[C@@H](CO)C(=O)N[C@@H](CO)C(=O)NCC(=O)N[C@@H](C)C(=O)N1CCC[C@H]1C(=O)N1CCC[C@H]1C(=O)N1CCC[C@H]1C(=O)N[C@@H](CO)C(N)=O
In the case of B1, in the series with human GIP receptor [3], the “EC50 hGIPR 0% HSA (cAMP, HEK-293)” value turned out to be 0.00022 nM and the “EC50 hGIPR 0.1% BSA (cAMP, HEK-293)” value is 0.0644 nM.

(Values after patent US20240360194A1, “New Peptides as Potent and Selective GIP Receptor Agonists” (Sanofi, priority 2021, published 2024).)
